Source: patent US5965539A, “Inhibitors of prenyl transferases” (Univeristy of Pittsburgh, priority 1996, dated 1999)
Like-named read-outs stand apart in the source and are kept apart here.

Tests used:
Assay type in all cases: biochemical
FTase [1] = target: T1, FTase (Homo sapiens, UniProt P49356); assay: FTase activity assay: transfer of [3H]farnesyl from FPP to recombinant H-Ras-CVLS, Daudi 60,000xg supernatant; settings: for Selectivity: FTase over GGTase I; for GG/F: ratio GGTase I IC50 / FTase IC50
T1 construct: FTase and GGTase I activities from 60,000×g supernatants of human Burkitt lymphoma (Daudi) cells; endogenous in cells; host or cells: human Burkitt lymphoma (Daudi) cells, 60,000xg supernatant (partially purified)
T1 sequence (P49356 whole entry): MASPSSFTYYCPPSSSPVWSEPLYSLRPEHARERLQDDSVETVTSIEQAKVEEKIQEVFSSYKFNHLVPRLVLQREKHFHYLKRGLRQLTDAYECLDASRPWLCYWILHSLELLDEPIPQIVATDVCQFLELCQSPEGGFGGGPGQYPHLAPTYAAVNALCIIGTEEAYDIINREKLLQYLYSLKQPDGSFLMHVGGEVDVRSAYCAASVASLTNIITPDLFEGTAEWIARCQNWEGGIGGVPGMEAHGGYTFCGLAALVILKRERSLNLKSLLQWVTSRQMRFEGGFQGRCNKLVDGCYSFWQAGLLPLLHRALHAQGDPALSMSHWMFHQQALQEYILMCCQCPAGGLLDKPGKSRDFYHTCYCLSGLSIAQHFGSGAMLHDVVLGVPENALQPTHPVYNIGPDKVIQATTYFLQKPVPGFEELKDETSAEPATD
Method: FTase and GGTase I activities from 60,000×g supernatants of human Burkitt lymphoma (Daudi) cells (ATCC, Rockville, Md., USA) were assayed as described previously for FTase (41). Briefly, 100 μg of the supernatant was incubated in 50 mM Tris, pH 7.5, 50 μM ZnCl2, 20 mM KCl and 1 mM dithiothreitol (DTT).
Human Burkitt lymphoma (Daudi) cells (ATCC, Rockville, Md.) were grown in suspension in RPMI 1640 medium containing 10% fetal bovine serum (FBS) and 1% Pen-Strep in a humidified 10% CO2 incubator at 37° C. The cells were harvested and sonicated in 50 mM Tris, pH 7.5, 1 mM EDTA, 1 mM EGTA, 25 μg/ml leupeptin, 1 mM phenylmethylsulfonyl fluoride. Homogenates were then spun at 12,000×g and the resulting supernatant further spun at 60,000×g. The supernatant was assayed for both FTase and GGTase I. Briefly, 100 μg of the supernatants was incubated in 50 mM Tris, pH 7.5, 50 μM ZnCl2, 20 mM KCl, 3 mM MgCl2 and 1 mM DTT. […] FPP (625 nM; 16.3 Ci/mmol). For GGTase assays, the reaction was also incubated for 30 minutes at 37° C. but with recombinant H-Ras-CVLL (5 μM) and [^3 H] GGPP (525 nM; 19.0 Ci/mmol). The reaction was stopped and passed through glass fiber filters to separate free and incorporated label. For inhibition studies, the peptidomimetics were premixed with FTase or GGTase I prior to adding the remainder of the reaction mixture. […] Recombinant H-Ras-CVLL was prepared from bacteria (32).
FTase and GGTase I activities from 60,000×g supernatants of human Burkitt lymphoma (Daudi) cells (ATCC, Rockville, Md.) were assayed exactly as described previously for FTase (41).

GGTase I = target: T2, GGTase I (Homo sapiens, UniProt P53609); assay: GGTase I activity assay: transfer of [3H]geranylgeranyl to recombinant H-Ras-CVLL, Daudi 60,000xg supernatant
T2 construct: FTase and GGTase I activities from 60,000×g supernatants of human Burkitt lymphoma (Daudi) cells; endogenous in cells; host or cells: human Burkitt lymphoma (Daudi) cells, 60,000xg supernatant (partially purified)
T2 sequence (P53609 whole entry): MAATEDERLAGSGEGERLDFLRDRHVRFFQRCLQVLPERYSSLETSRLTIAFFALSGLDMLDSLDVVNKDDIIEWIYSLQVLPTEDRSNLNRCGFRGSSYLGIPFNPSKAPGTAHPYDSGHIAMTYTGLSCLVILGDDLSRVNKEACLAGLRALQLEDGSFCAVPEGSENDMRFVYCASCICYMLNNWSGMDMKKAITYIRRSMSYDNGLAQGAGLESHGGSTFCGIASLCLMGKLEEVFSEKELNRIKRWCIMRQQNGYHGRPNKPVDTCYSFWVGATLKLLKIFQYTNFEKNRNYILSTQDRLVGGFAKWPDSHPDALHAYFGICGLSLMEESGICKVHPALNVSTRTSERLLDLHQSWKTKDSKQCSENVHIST
Method: FTase and GGTase I activities from 60,000×g supernatants of human Burkitt lymphoma (Daudi) cells (ATCC, Rockville, Md., USA) were assayed as described previously for FTase (41). Briefly, 100 μg of the supernatant was incubated in 50 mM Tris, pH 7.5, 50 μM ZnCl2, 20 mM KCl and 1 mM dithiothreitol (DTT). The reaction was incubated at […] for 30 min with recombinant Ha-Ras-CVLS (11 μM) and [^3 H]FPP (625 nM; 16.3 Ci/mmol) for FTase, and recombinant Ha-Ras-CVLL (5 μM) and [^3 H]geranylgeranylpyrophosphate (525 nM; 19.0 Ci/mmol) for GGTase I. The peptidomimetics were mixed with FTase and GGTase before adding to the reaction mixture.
Human Burkitt lymphoma (Daudi) cells (ATCC, Rockville, Md.) were grown in suspension in RPMI 1640 medium containing 10% fetal bovine serum (FBS) and 1% Pen-Strep in a humidified 10% CO2 incubator at 37° C. The cells were harvested and sonicated in 50 mM Tris, pH 7.5, 1 mM EDTA, 1 mM EGTA, 25 μg/ml leupeptin, 1 mM phenylmethylsulfonyl fluoride. Homogenates were then spun at 12,000×g and the resulting supernatant further spun at 60,000×g. The supernatant was assayed for both FTase and GGTase I. Briefly, 100 μg of the supernatants was incubated in 50 mM Tris, pH 7.5, 50 μM ZnCl2, 20 mM KCl, 3 mM MgCl2 and 1 mM DTT. For FTase assays, the reaction was incubated at 37° C. for 30 minutes with recombinant H-Ras-CVLS (11 μM) and [^3 H] FPP (625 nM; 16.3 Ci/mmol). For GGTase assays, the reaction was also incubated for 30 minutes at 37° C. but with recombinant H-Ras-CVLL (5 μM) and [^3 H] GGPP (525 nM; 19.0 Ci/mmol). The reaction was stopped and passed through glass fiber filters to separate free and incorporated label. For inhibition studies, the peptidomimetics were premixed with FTase or GGTase I prior to adding the remainder of the reaction mixture. Recombinant H-Ras-CVLS was prepared as described previously (26) from bacteria (31). Recombinant H-Ras-CVLL was prepared from bacteria (32).
FTase and GGTase I activities from 60,000×g supernatants of human Burkitt lymphoma (Daudi) cells (ATCC, Rockville, Md.) were assayed exactly as described previously for FTase (41). Inhibition studies were performed by determining the ability of Ras CAAX peptidomimetics to inhibit the transfer of [^3 H]-farnesyl and [^3 H]-geranylgeranyl from [^3 H]FPP and [^3 H]GGPP to H-ras-CVLS and H-Ras-CVLL, respectively (41).

FTase [2] = target: T1, FTase; assay: Peptidomimetics farnesylation assay (silica gel TLC); settings: Table 4; substrate for farnesylation, TLC
Method: The ability of human Burkitt lymphoma (Daudi) FTase to farnesylate peptides and peptidomimetics was determined as described previously (34, 35). Briefly, 25 μl of reaction mixture containing 50 μg of 60,000×g supernatants and 20 μM peptidomimetic in 50 mM Tris, pH 7.5, 50 μM ZnCl2, 20 mM KCl, 3 mM MgCl2, 1 mM DTT and 0.2% octylβ-D-glucoside was incubated for 30 minutes at 37° C., then spotted onto silica gel G TLC sheets (20×20 cm, Brinkmann Instruments), and developed with n-propanol/5 N ammonium hydroxide/water (6:1:1). The dried sheets were sprayed with En^3 Hance (DuPont NEN) and exposed to x-ray film for detection of [^3 H] farnesylated products.

[3] = Table 4, read-out: GGTase-I IC50
[4] = Table 1, read-out: GGTase I IC50

Molecule	IC50 (FTase [1]; Table 4, read-out: FTase IC50) [nM]	IC50 (GGTase I; [3]) [µM]	Selectivity (FTase [1]; Table 4)	also measured
NCC(N)C(=O)Nc1ccc(-c2cccc(C(=O)O)c2)cc1 (stereo not drawn) [FTI-291, 4-(3-Aminoalanyl)-amino-3'-carboxybiphenyl]	210000	–	–	–
CC(C)C[C@H](NC(=O)c1ccc(NC[C@@H](N)CS)cc1-c1ccccc1)C(=O)O [GGTI-287, 4-[2(R)-amino-3-mercaptopropyl]amino-2-phenylbenzoyl-(S)-leucine]	–	–	–	selectivity for GGTase I over FTase (GGTase I): 5 fold; IC50 (GGTase I; Table 5, read-out: In Vitro IC50 GGTase I): 0.005 µM; IC50 (GGTase I; read-out: GGTase I IC50): 0.005 µM; IC50 (FTase [1]; Table 5, read-out: In Vitro IC50 FTase): 25 nM
COC(=O)c1cccc(-c2ccc(NC[C@@H](N)CS)cc2)c1 [FTI-259, 4-N-[2(R)-Amino-3-mercaptopropyl]amino-3'-methoxycarbonylbiphenyl]	917	> 100	109	Substrate (FTase [2]): no
N[C@@H](CS)CNc1ccc(-c2ccccc2)cc1 [FTI-268, 4-N-[2(R)Amino-3-Mercaptopropyl]aminobiphenyl]	1070	> 100	93	Substrate (FTase [2]): no
CSCC[C@H](NC(=O)c1ccc(NC(=O)[C@@H](N)CS)cc1-c1cc(C)cc(C)c1)C(=O)O.O=C(O)C(F)(F)F [FTI-275, TFA.Cysteine-4-amino-2-(3,5-dimethylphenyl)benzoyl methionine]	–	–	–	IC50 (GGTase I; [4]): 0.4 µM; GG/F (FTase [1]; Table 1): 1; IC50 (FTase [1]; Table 1, read-out: FTase IC50): 405 nM
Cc1cccc(-c2ccc(NC[C@@H](N)CS)cc2-c2ccccc2)c1 [FTI-285, red.Cys-4-amino-2-phenyl-3'-methylbiphenyl]	2080	8.5	4	–
CSCC[C@H](NC(=O)c1ccc(NC(=O)[C@@H](N)CS)cc1-c1ccccc1)C(=O)O.O=C(O)C(F)(F)F [FTI-272, TFA.Cysteine-4-amino-2-phenylbenzoyl methionine]	–	–	–	IC50 (GGTase I; [4]): 0.267 µM; GG/F (FTase [1]; Table 1): 53; IC50 (FTase [1]; Table 1, read-out: FTase IC50): 5 nM
NC[C@H](N)CNc1ccc(-c2cccc(C(=O)O)c2)cc1 [FTI-292, (L)4(2,3-diaminopropyl)-amino-3'-carboxybiphenyl]	60000	–	–	–
N[C@@H](CS)CNc1ccc(-c2cccc(C(=O)O)c2)c(-c2ccccc2)c1 [FTI-289, red.Cys-4-amino-2-phenyl-3'-carboxybiphenyl]	16	0.643	40	–
TFA.cysteine-4-amino-3-methylbenzoyl methionine [FTI-260]	–	–	–	IC50 (GGTase I; [4]): 9 µM; GG/F (FTase [1]; Table 1): 11; IC50 (FTase [1]; Table 1, read-out: FTase IC50): 825 nM
COC(=O)C(CCSC)NC(=O)c1ccc(NC(=O)C(N)CS)cc1-c1ccccc1.Cl (stereo not drawn) [FTI-274, HCl.cysteine-4-amino-2-phenylbenzoyl methionine methyl ester]	–	–	–	IC50 (GGTase I; [4]): 30 µM; GG/F (FTase [1]; Table 1): 15; IC50 (FTase [1]; Table 1, read-out: FTase IC50): 2050 nM
TFA.cysteine-4-amino-1-naphthoyl methionine [FTI-270]	–	–	–	IC50 (GGTase I; [4]): 3.15 µM; GG/F (FTase [1]; Table 1): 22; IC50 (FTase [1]; Table 1, read-out: FTase IC50): 143 nM
N[C@@H](CS)C(=O)Nc1ccc(-c2cccc(C(=O)O)c2)cc1 [FTI-278, Cysteinyl-4-amino-3'-carboxybiphenyl]	13500	100	7	–
COc1cc(C(=O)NC(CCSC)C(=O)O)ccc1NC(=O)C(N)CS.O=C(O)C(F)(F)F (stereo not drawn) [FTI-261, TFA.Cysteine-4-amino-3-methoxybenzoyl methionine]	–	–	–	IC50 (GGTase I; [4]): 50 µM; GG/F (FTase [1]; Table 1): 20; IC50 (FTase [1]; Table 1, read-out: FTase IC50): 2550 nM
CCS(=O)(=O)NCC(N)C(=O)Nc1ccc(-c2cccc(C(=O)O)c2)cc1 (stereo not drawn) [FTI-295, 4-(Ethylsulfonyl-3-aminoalanyl)-amino-3'-carboxy-biphenyl]	200000	> 1000	> 5	–
COc1cc(NC[C@@H](N)CS)ccc1-c1cccc(C(=O)O)c1 [FTI-281, 2-Methoxy-4-N-[2(R)-amino-3-mercaptopropyl]amino-3'-carboxybiphenyl]	40	43.6	1090	–
N[C@@H](CS)CNCc1cccc(-c2cccc(C(=O)O)c2)c1 [FTI-283, red.Cys-3-aminomethyl-3'-carboxybiphenyl]	11000	35	3	–
4-(Vinylsulfonyl-3-aminoalanyl)-amino-3'-carboxybiphenyl [FTI-296]	430000	> 1000	> 2	–
HCl-cysteine-4-aminobenzoyl methionine [FTI-232]	150	1.5	10	IC50 (GGTase I; [4]): 1.2 µM; selectivity for FTase over GGTase I (FTase [1]): 10 fold; GG/F (FTase [1]; Table 1): 6; IC50 (FTase [1]; Table 1, read-out: FTase IC50): 213 nM
NCC(N)CNc1ccc(-c2cccc(C(=O)O)c2)cc1 (stereo not drawn) [FTI-282, (DL) 4-(2,3-diaminopropyl)-amino-3' carboxybiphenyl]	50000	–	> 2	–
CCCOc1cc(NC[C@@H](N)CS)ccc1-c1cccc(C(=O)O)c1 [FTI-288, red.Cys-4-amino-2-OPr-3'-carboxybiphenyl]	41	2.38	59	–
N[C@@H](CS)C(=O)NCc1cccc(-c2cccc(C(=O)O)c2)c1 [FTI-238, Cys-3-aminomethyl-3'-carboxybiphenyl]	100000	> 100	> 1	Substrate (FTase [2]): no
N[C@@H](CS)CNc1ccc(-c2cccc(-c3nnn[nH]3)c2)cc1 [FTI-2102, red.Cys-4-amino-3'-tetrazolylbiphenyl]	30	5	187	–
N[C@@H](CS)CNc1ccc(-c2ccccc2C(=O)O)cc1 [FTI-273, 4-N-[2(R)-Amino-3-mercaptopropyl]amino-2'-carboxybiphenyl]	543	140	258	–
